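96-well plates; 48 h exposure; 5 concentrations. Endpoints by linear interpolation between flanking doses. Not reached: highest tested concentration assigned. At the TGI there is no net growth.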
What was measured:
Experiment in all cases: NCI anticancer screen, dose series, 48 h
DU-145 prostate = system: DU-145 prostate
HOP-62 NSCLC = system: HOP-62 NSCLC
OVCAR-5 ovarian = system: OVCAR-5 ovarian
MDA-MB-435 = system: MDA-MB-435
MDA-MB-231 breast = system: MDA-MB-231 breast
CCRF-CEM leukemia = system: CCRF-CEM leukemia
M14 melanoma = system: M14 melanoma
SK-MEL-2 melanoma = system: SK-MEL-2 melanoma
MALME-3M melanoma = system: MALME-3M melanoma
OVCAR-8 ovarian = system: OVCAR-8 ovarian
T-47D breast = system: T-47D breast
OVCAR-4 ovarian = system: OVCAR-4 ovarian
SN12C renal = system: SN12C renal
UACC-62 melanoma = system: UACC-62 melanoma
HCT-116 colon = system: HCT-116 colon
HOP-92 NSCLC = system: HOP-92 NSCLC
PC-3 prostate = system: PC-3 prostate
RPMI-8226 leukemia = system: RPMI-8226 leukemia
NCI-H23 lung = system: NCI-H23 lung
NCI-H226 lung = system: NCI-H226 lung

Row | SMILES | TGI (DU-145 prostate) [µM] | TGI (HOP-62 NSCLC) [µM] | TGI (OVCAR-5 ovarian) [µM] | TGI (MDA-MB-435) [µM] | TGI (MDA-MB-231 breast) [µM] | TGI (CCRF-CEM leukemia) [µM] | TGI (M14 melanoma) [µM] | TGI (SK-MEL-2 melanoma) [µM] | TGI (MALME-3M melanoma) [µM] | TGI (OVCAR-8 ovarian) [µM] | TGI (T-47D breast) [µM] | TGI (OVCAR-4 ovarian) [µM] | TGI (SN12C renal) [µM] | TGI (UACC-62 melanoma) [µM] | TGI (HCT-116 colon) [µM] | TGI (HOP-92 NSCLC) [µM] | TGI (PC-3 prostate) [µM] | TGI (RPMI-8226 leukemia) [µM] | TGI (NCI-H23 lung) [µM] | TGI (NCI-H226 lung) [µM]
1 | O=C(NCCCCCCCCNC(=O)Nc1cccc2ccccc12)Nc1cccc2ccccc12 | > 100 | 50.6 | > 100 | 81.3 | 23.3 | 48.7 | > 100 | > 100 | > 100 | > 100 | > 100 | 4.18 | 59.3 | > 100 | > 100 | 36 | > 100 | > 100 | > 100 | –
2 | CC(C(=O)NCNC(=O)c1ccccc1)C(=O)Nc1ccccc1 (centres undefined) | > 100 | – | > 100 | > 100 | > 100 | > 100 | > 100 | > 100 | > 100 | > 100 | > 100 | – | > 100 | > 100 | > 100 | > 100 | > 100 | > 100 | > 100 | > 100
3 | CCCCCCCCCCC/C=C(/C(=O)CCCO[Si](C)(C)C(C)(C)C)C(=O)OC | > 100 | > 100 | > 100 | > 100 | > 100 | > 100 | > 100 | > 100 | > 100 | > 100 | > 100 | > 100 | > 100 | > 100 | > 100 | > 100 | > 100 | > 100 | > 100 | > 100
4 | FC(F)(F)c1ccc2c(-c3cc[nH]c3)ccnc2c1 | > 100 | > 100 | 87.4 | > 100 | > 100 | > 100 | > 100 | > 100 | 50.4 | > 100 | > 100 | > 100 | > 100 | > 100 | > 100 | > 100 | > 100 | 95.2 | > 100 | > 100
5 | Cc1cc(C)c(/C=C2\C(=O)Nc3ccccc32)[nH]1 | > 100 | > 100 | > 100 | > 100 | > 100 | > 100 | > 100 | > 100 | > 100 | > 100 | > 100 | > 100 | > 100 | > 100 | > 100 | > 100 | > 100 | > 100 | > 100 | > 100
6 | Cc1n[nH]c(=O)n1C1CC1 | > 100 | > 100 | > 100 | > 100 | > 100 | > 100 | > 100 | – | > 100 | > 100 | > 100 | > 100 | > 100 | > 100 | > 100 | > 100 | > 100 | > 100 | > 100 | > 100
7 | NC(=O)N/N=C\CC(O)(C(F)(F)Cl)C(F)(F)Cl | > 10 | > 10 | – | > 10 | > 10 | > 10 | > 10 | > 10 | > 10 | > 10 | > 10 | > 10 | > 10 | > 10 | > 10 | > 10 | > 10 | > 10 | > 10 | > 10
8 | COCN1C(=O)[C@@H]2C[C@@H](O)CN2C(=O)c2ccccc21 | > 100 | > 100 | > 100 | > 100 | > 100 | > 100 | > 100 | > 100 | > 100 | > 100 | > 100 | > 100 | > 100 | > 100 | > 100 | > 100 | > 100 | > 100 | > 100 | –
9 | O=S(=O)(CC(Cl)c1ccccc1)c1nc2ccccc2s1 (centres undefined) | 30.2 | 41.1 | 28.8 | 20.5 | 30.4 | 4.28 | 7.2 | 37.4 | 23.6 | 23.8 | 41.7 | 51.1 | 30.3 | 40 | 23.6 | 9.38 | 29.9 | 9.65 | 25.5 | 22.1
10 | O=C(CCN1CCCCC1)Nc1ccc2c(c1)C(=O)c1ccc(NC(=O)CCN3CCCCC3)cc1C2=O | 26.9 | 6.67 | 31.4 | 3.25 | 3.6 | 11.1 | 10.1 | 9.92 | 25.5 | 13.7 | 32.1 | 8.45 | 18 | 34.7 | 3.2 | 29.2 | 5.1 | 14.6 | 12.5 | 29.6
11 | O=c1[nH]c2nc3ccccc3c(=O)n2/c1=C/c1ccccc1 | > 100 | > 100 | > 100 | 59 | > 100 | > 100 | > 100 | > 100 | > 100 | > 100 | > 100 | > 100 | 83.8 | > 100 | > 100 | > 100 | > 100 | > 100 | > 100 | > 100

Source: PubChem BioAssay (NCI)
